Assay results reported in patent US10668032B2 (SyneuRx International (Taiwan) Corp., priority 2016, dated 2020).

Assays:
[1] = tested on: GFAP positive cells in cortical culture; assay: GFAP immunocytochemistry in cortical culture after Aβ25-35; type: cell-based, rat
Protocol: Cells were fixed in 4% PFA and washed in PBS, blocked with 2% bovine serum albumin (BSA) and 0.03% Triton X-100 in PBS, and then incubated with mouse monoclonal antibody against microtubule-associated protein-2 (MAP-2) (Cat. No. MAB378, 1:150, CHEMICON International, Inc., Temecula, Calif., USA); rabbit polyclonal antibody against GFAP (Cat. No. Z0334, 1:600, DakoCytomation Denmark A/S, Denmark). The goat anti-mouse IgG Alexa Fluor-conjugated secondary antibodies (1:500; Cat No. A11003, Thermo Scientific); anti-rabbit IgG Alexa Fluor-conjugated secondary antibodies (1:500; Thermo Scientific) were applied respectively to recognize the primary antibodies of the MAP-2 and GFAP.
The coverslips were observed under a digital imaging fluorescence microscope (Olympus BX61; Japan) equipped with filter sets to detect the corresponding fluorescence signals.
Glial fibrillary acidic protein (GFAP) is an intermediate filament protein expressed by cells in the CNS, and is also recognized as an astrocyte maturation marker. Upregulation of GFAP, indicating gliosis, is commonly observed after CNS lesion; therefore, expression of GFAP could be useful to understand the state of neurological diseases.

[2] = tested on: MPTP-induced C57BL/6J mice; assay: Pole test in MPTP-induced mice; type: in vivo, mouse; conditions: 256 mg/kg body weight/day after 5 weeks of MPTP 30 mg/kg/day i.p.
Protocol: Animals were housed and kept in the same condition as previous described. Male C57BL/6J mice (age: 12 weeks) were randomly assigned to 2 groups—vehicle control and MPTP-induced groups. The mice of MPTP-induced group were intraperitoneally injected with MPTP (30 mg/kg body weight/day) for five weeks, while those in the vehicle control group received injections of the same volume of saline. After 5 weeks of MPTP exposure, pole test was performed to elucidate the effect of MPTP-induced disability.
Pole test was used to measure the degree of bradykinesia, a typical symptom of parkinsonism. The animals were positioned head upward near the top of a rough-surfaced pole (1 cm in diameter and 60 cm in height). The time taken until they turned downward (Tturn) and the total time taken to climb down to the floor (TLA), were recorded. When the mouse was not able to turn downward, Tturn was taken as 60 seconds (default value).

C57BL/6J mice = assay: Von Frey test of acute mechanical pain; type: in vivo, mouse; conditions: 256 mg/kg i.p.
Protocol: Animals are housed and kept in the same condition as previous described.
The Von Frey test is used to assess mechanical nociception. A mouse is placed in a small box (10 cm×6 cm×10.5 cm) on a confined area of wire mesh (65 cm×21 cm×31 cm) (2450 Electronic Von Frey Anesthesiometer, IITC, U.S.A.). The mouse was kept in the box for 60 min to acclimatize. When the tested mouse calms down, a special tip with electrode inside was used to poke its hind paw.

SH-SY5Y cells = assay: MPTP toxicity in SH-SY5Y cells, MTT assay; type: cell-based, human
Protocol: SH-SY5Y, the human neuroblastoma cell line, was incubated with MPTP (750 μM) for 24 hrs.

[3] = tested on: MPTP/3-NP-induced C57BL/6J mice; assay: Rotarod in MPTP plus 3-NP intoxicated mice (MSA-P model); type: in vivo, mouse; conditions: 256 mg/kg body weight/day for one week after 9 days MPTP/3-NP, vs saline
Protocol: Male C57BL/6J mice (age, 8-12 weeks) were randomly assigned to 2 groups—vehicle control and MPTP/3-NP-induced groups. MPTP and 3-NP were administered during a 9-day intoxication period. 3-NP was administered i.p. every 12 h (total dose 450 mg/kg in 9 days) and MPTP i.p. at 10 mg/kg/day (total dose 90 mg/kg in 9 days).
Rotarod motor activity was measured before and after chronic MPTP/3-NP induction, respectively. Time spent on the rod at each level of revolving speed indicated motor performance. Mice were trained at the speed accelerating from 4 to 10 rpm over 5 min before the test (−7, −5, −3 Days). During the test, all animals started at 4 rpm and accelerated from 4 to 20 rpm over 5 min with each mouse experiencing three trials per day with inter-trial interval of 10 min. The average latency time of each mouse to fall is calculated.

[4] = tested on: cortical cells with Aβ25-35 exposure; assay: Aβ25-35 cytotoxicity with or without NMDA receptor antagonist MK801, cell survival
Protocol: Aβ25-35 (Cat. No. A4559, Sigma) was dissolved in autoclaved ddH2O to make a stock solution of 2 mM, dispensed into aliquots, and immediately stored at −80° C. until use.
In this study, the application of MK801 could reveal whether the neuroprotective effects of drugs were mediated by NMDA receptor.

primary cortical neurons = assay: Aβ25-35 cytotoxicity in primary cortical culture, cell survival (MTT)
Protocol: MTT assay was used to assess the extents of cell survival. MTT (3-(4,5-dimethylthiazol-2-yl)-2,5-diphenyltetrazolium bromide) was added to the culture, incubated at 37° C. for 4 hours. Insoluble purple formazan products were yield by living cells. The colorimetric method was used to quantify the surviving cells, and “cell survival (%)” was defined as the mean numbers of surviving cells.
Primary cortical cultures were prepared as previous described. Aβ25-35 (Cat. No. A4559, Sigma) was dissolved in autoclaved ddH2O to make a stock solution of 2 mM, dispensed into aliquots, and immediately stored at −80° C. until use.

cortical neurons = assay: Mitochondrial respiration, XF Cell Mito Stress Test (OCR); type: cell-based, rat; conditions: 3 mM, pre-treatment 24 h
Protocol: The preparation of primary cortical culture was as described before, but the cells were seeded on XF 96 well cell culture microplates. On the day of assay, culture media were changed to XF Assay medium (Seahorse Biosciences, USA). Prior to assay, plates were transferred into an incubator with CO2 supplementation at 37° C. and kept for 1 hour. The overall OCR was calculated.
The XF Cell Mito Stress Test modulates respiration that target components of the electron transport chain (ETC) in the mitochondria to reveal key parameters of metabolic function. The modulators (oligomycin, FCCP, and a mix of rotenone and antimycin A) are serially injected to measure ATP production, maximal respiration, and non-mitochondrial respiration. Proton leak and spare respiratory capacity are then calculated using these parameters.

[5] = Plasma pharmacokinetics of benzoic acid after oral gavage; type: in vivo, Sprague-Dawley rats; conditions: rat, single oral gavage
Protocol: The plasma concentration of benzoic acid was determined by LC/MS/MS. The chromatographic separation was carried out on a ODS 5 um column (4.6×150 mm, Biosil). The mobile phase consisted of a mixture of 1% mobile phase A and 99% mobile phase B. […] The injection volume was 50 μL and the column temperature was 23° C. All solvents were HPLC grade quality. Plots of plasma concentration of benzoic acid versus time are constructed. The fundamental pharmacokinetic parameters were obtained from non-compartmental analysis (NCA) of the plasma data using WinNonlin.

[6] = NaBen 287.9 mg/kg + Li2CO3 74.2 mg/kg or LiBen 255.3 mg/kg

**Q.** For `O=C([O-])c1ccccc1.[Li+]` [lithium benzoate], which “reduction of GFAP positive cells compared with LiCl” value ([1]; LiBen 0.5 mM vs LiCl 1 mM) is on record?
**A.** Its value is “better effect than LiCl”.

**Q.** What about the “number of GFAP positive cells after Aβ25-35 exposure” value ([1]; post-treatment 0.5 mM) of the same compound?
**A.** The value was “significantly reduced”.

**Q.** And the “total time for turning down (TLA), pole test” value [2]?
**A.** The value was “significantly reduced”.

**Q.** And the “turning time (Tturn), pole test” value [2]?
**A.** Its value is “significantly reduced”.

**Q.** What about the “acute mechanically evoked pain (paw withdrawal threshold)” value (C57BL/6J mice; vs PBS) of the same compound?
**A.** The value was “alleviated”.

**Q.** And the “time course of the antinociceptive effect” value (C57BL/6J mice; tested at 30, 60, 90, 120 min)?
**A.** Its value is “obvious after 30 min of administration and lasted till 60 min”.

**Q.** And the “cell survival improvement compared with sodium benzoate and lithium chloride” value (SH-SY5Y cells; 1 mM each, MPTP 750 μM)?
**A.** The value was “better performance of cell survival improvement than the other two groups”.

**Q.** What about the “dose at which the protective effect was most obvious” value (SH-SY5Y cells; 0.3, 1, 3 mM tested, MPTP) of the same compound?
**A.** The value was 1 mM.

**Q.** What about the “retention time on rotarod” value [3] of the same compound?
**A.** The value was “significantly improved”.

**Q.** And the “protective effect with or without MK801 treatment” value ([4]; 0.5 mM, MK801 10 μM vs 0 μM)?
**A.** The value was “No obvious differences”.

**Q.** What about the “cell survival with Aβ25-35 exposure” value ([4]; post-treatment 0.5 mM, MK801 0 μM) of the same compound?
**A.** Its value is “elevate the cell survival”.

**Q.** And the “cortical cell survival after Aβ25-35” value (primary cortical neurons; 10 μM Aβ 25-35 for 2 days, then drug 1 mM for 4 days, vs no drug treatment)?
**A.** The value was “statistical improvement”.

**Q.** And the “reduction of cell death from Aβ25-35 toxicity compared with sodium benzoate and lithium chloride” value (primary cortical neurons; 1 mM each, 4 days)?
**A.** Its value is “much more than the other two drugs”.

**Q.** And the “basal respiration (basal OCR)” value (cortical neurons)?
**A.** The value was “reduced more basal OCR than the other groups”.

**Q.** And the spare respiratory capacity (cortical neurons)?
**A.** Its spare respiratory capacity is “increasing of spare respiratory capacity”.

**Q.** What about the ATP production (cortical neurons; versus NaBen or LiCl) of the same compound?
**A.** Its ATP production is “better reduction levels”.

**Q.** What about the proton leak (cortical neurons; versus NaBen or LiCl) of the same compound?
**A.** Its proton leak is “better reduction levels”.

**Q.** What about the “AUC Extr of benzoic acid” value [5, 6] of the same compound?
**A.** The value was 2.63%.

**Q.** And the “AUCInf of benzoic acid” value [5, 6]?
**A.** Its value is 62,874 hr * ng/mL.

**Q.** And the “AUClast of benzoic acid” value [5, 6]?
**A.** The value was 62,059 hr * ng/mL.

**Q.** What about the “Cmax of benzoic acid” value [5, 6] of the same compound?
**A.** Its value is 109,321 ng/mL.

**Q.** And the “MRT of benzoic acid” value [5, 6]?
**A.** The value was 45 min.

**Q.** What about the “Tmax of benzoic acid” value ([5]; NaBen 287.9 mg/kg + Li2CO3 74.2 mg/kg or LiBen 255.3 mg/kg (same molarity)) of the same compound?
**A.** The value was 11.4 min.
